Experimental data published in patent US20240116985A1, “STAPLED PEPTIDES AND METHODS THEREOF” (priority 2020, published 2024).
Like-named read-outs stand apart in the source and are kept apart here.

How the values were obtained:
CHI Log D procedure = type: physicochemical; conditions: for chromatographic logD: pH 7.4, CHI Log D; for CHI Log D: pH 7.4
[1] = biological target: T1, beta-catenin/TCF4 engagement (Homo sapiens, UniProt P35222); assay: Nano-BRET target engagement assay (B-cat-Halo & TCF4-Luc in HEK293 cells); type: cell-based
T1 construct: expressed in transfected cells; host or cells: HEK293
T1 sequence (P35222 1-781): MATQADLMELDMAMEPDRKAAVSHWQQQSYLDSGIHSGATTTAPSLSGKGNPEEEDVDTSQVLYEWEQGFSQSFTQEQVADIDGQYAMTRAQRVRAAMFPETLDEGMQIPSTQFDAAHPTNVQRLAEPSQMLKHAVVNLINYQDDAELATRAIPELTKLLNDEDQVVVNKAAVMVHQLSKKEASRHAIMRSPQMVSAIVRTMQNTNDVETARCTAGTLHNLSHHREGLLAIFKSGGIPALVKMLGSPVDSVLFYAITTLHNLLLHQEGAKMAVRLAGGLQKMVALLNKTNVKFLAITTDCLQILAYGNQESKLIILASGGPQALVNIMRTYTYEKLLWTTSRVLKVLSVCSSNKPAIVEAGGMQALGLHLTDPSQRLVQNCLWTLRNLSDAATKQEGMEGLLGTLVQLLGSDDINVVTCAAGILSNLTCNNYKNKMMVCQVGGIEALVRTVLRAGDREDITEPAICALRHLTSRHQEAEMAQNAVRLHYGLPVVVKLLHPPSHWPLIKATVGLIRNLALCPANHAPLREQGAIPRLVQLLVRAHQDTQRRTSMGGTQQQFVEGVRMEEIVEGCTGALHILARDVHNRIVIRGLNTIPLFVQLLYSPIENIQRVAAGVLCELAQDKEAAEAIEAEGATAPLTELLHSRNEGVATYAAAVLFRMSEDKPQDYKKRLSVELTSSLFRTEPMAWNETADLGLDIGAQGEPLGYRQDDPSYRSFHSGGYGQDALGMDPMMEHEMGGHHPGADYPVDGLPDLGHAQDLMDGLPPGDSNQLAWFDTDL

[2] = biological target: T2, full-length beta-Catenin (Uniprot ID P35222) (Homo sapiens, UniProt P35222); assay: Fluorescence polarization IC50 (beta-catenin / 5FAM-TCF4 10-53 competition); type: binding
T2 construct: 10 nM full-length beta-Catenin (Uniprot ID P35222)
T2 sequence (P35222 1-781): T1 sequence (P35222 1-781)

[3] = absolute IC50, read-out: NanoBRET Abs IC50
[4] = fluorescence polarization, beta-catenin, read-out: FP EC50

| Compound | chromatographic logD (CHI Log D procedure) | IC50 [1, 3] [µM] | IC50 ([2]; read-out: beta-Catenin FP IC50) [µM] | IC50 ([1]; read-out: NanoBRET IC50) [µM] | IC50 ([1]; read-out: NanoBRET Abs IC50) [µM] | CHI Log D (CHI Log D procedure) | IC50 [2, 4] [µM] |
| --- | --- | --- | --- | --- | --- | --- | --- |
| CC(=O)N1CCC[C@]12CC=CCCCC1(CCCC=CCCCOC(=O)N3CC[C@@](C(=O)N[C@@H](Cc4ccsc4)C(=O)N[C@@H](Cc4csc5ccccc45)C(=O)N[C@@H](CCC(N)=O)C(N)=O)(C3)NC(=O)[C@H](Cc3ccccc3)NC(=O)[C@H](Cc3ccccc3)NC(=O)[C@H](C)NC(=O)[C@H](C)NC(=O)[C@H](CN(CC(=O)O)CC(F)(F)F)NC(=O)[C@H](CC(=O)O)NC1=O)NC(=O)[C@H](CC(C)(C)C)NC(=O)[C@H](CC(=O)O)NC2=O (stereo partly drawn) [I-848, Ac-PL3-Asp-Npg-B5-Asp-TfeGA-Ala-Ala-Phe-Phe-PyrS2-3Thi-BztA-Gln-NH2] | 2.46 | 7 | 0.013 |  |  |  |  |
| CC(=O)N1CCC[C@]12CC=CCCCC1(CCCC=CCCCOC(=O)N3CC[C@@](C(=O)N[C@@H](Cc4ccsc4)C(=O)N[C@@H](Cc4csc5ccccc45)C(=O)N[C@@H](CCC(N)=O)C(N)=O)(C3)NC(=O)[C@H](Cc3ccccc3)NC(=O)[C@H](Cc3ccccc3)NC(=O)[C@H](C)NC(=O)[C@H](C)NC(=O)[C@H](Cc3ccc(C(=O)O)cc3)NC(=O)[C@H](CC(=O)O)NC1=O)NC(=O)[C@H](CC(C)(C)C)NC(=O)[C@H](CC(=O)O)NC2=O (stereo partly drawn) [I-850, Ac-PL3-Asp-Npg-B5-Asp-4COOHF-Ala-Ala-Phe-Phe-PyrS2-3Thi-BztA-Gln-NH2] | 2.26 | 16.4 | 0.026 |  |  |  |  |
| CC(=O)N1CCC[C@]12CC=CCCCC1(CCCC=CCCCOC(=O)N3CC[C@@](C(=O)N[C@@H](Cc4ccsc4)C(=O)N[C@@H](Cc4csc5ccccc45)C(=O)N[C@@H](CCC(N)=O)C(N)=O)(C3)NC(=O)[C@H](CC(C)C)NC(=O)[C@H](Cc3ccccc3)NC(=O)[C@H](C)NC(=O)[C@H](C)NC(=O)[C@H](Cc3ccc(C(=O)O)cc3)NC(=O)[C@H](CC(=O)O)NC1=O)NC(=O)[C@H](CC(C)(C)C)NC(=O)[C@H](CC(=O)O)NC2=O (stereo partly drawn) [I-851, Ac-PL3-Asp-Npg-B5-Asp-4COOHF-Ala-Ala-Phe-Leu-PyrS2-3Thi-BztA-Gln-NH2] | 2.15 | 7.6 | 0.016 |  |  |  |  |
| CC(=O)N1CCC[C@]12CC=CCCCC1(CCCC=CCCCOC(=O)N3CC[C@@](C(=O)N[C@@H](Cc4ccsc4)C(=O)N[C@@H](Cc4csc5ccccc45)C(=O)N[C@@H](CCC(N)=O)C(N)=O)(C3)NC(=O)[C@H](CC(C)C)NC(=O)[C@H](Cc3ccccc3)NC(=O)[C@H](C)NC(=O)[C@H](C)NC(=O)[C@H](Cc3ccccc3C(=O)O)NC(=O)[C@H](CC(=O)O)NC1=O)NC(=O)[C@H](CC(C)(C)C)NC(=O)[C@H](CC(=O)O)NC2=O (stereo partly drawn) [I-854, Ac-PL3-Asp-Npg-B5-Asp-2COOHF-Ala-Ala-Phe-Leu-PyrS2-3Thi-BztA-Gln-NH2] | 2.48 | 3.6 | 0.008 | 4.6 |  |  |  |
| CC(=O)N1CCC[C@]12CC=CCCCC1(CCCC=CCCCOC(=O)N3CC[C@@](C(=O)N[C@@H](Cc4ccsc4)C(=O)N[C@@H](Cc4csc5ccccc45)C(=O)N[C@@H](CCC(N)=O)C(N)=O)(C3)NC(=O)[C@H](CC(C)C)NC(=O)[C@H](Cc3ccccc3)NC(=O)[C@H](C)NC(=O)[C@H](C)NC(=O)[C@H](CC(N)=O)NC(=O)[C@H](CC(=O)O)NC1=O)NC(=O)[C@H](CC(C)(C)C)NC(=O)[C@H](CC(=O)O)NC2=O (stereo partly drawn) [I-856, Ac-PL3-Asp-Npg-B5-Asp-Asn-Ala-Ala-Phe-Leu-PyrS2-3Thi-BztA-Gln-NH2] | 2.45 |  | 0.017 |  | 6.8 |  |  |
| CC(=O)N1CCC[C@]12CC=CCCCC1(CCCC=CCCCOC(=O)N3CC[C@@](C(=O)N[C@@H](Cc4ccsc4)C(=O)N[C@@H](Cc4csc5ccccc45)C(N)=O)(C3)NC(=O)[C@H](CC(N)=O)NC(=O)[C@H](Cc3ccccc3)NC(=O)[C@H](C)NC(=O)[C@H](C)NC(=O)[C@H]([C@@H](C)O)NC(=O)[C@H](CC(=O)O)NC1=O)NC(=O)[C@H](CC(C)(C)C)NC(=O)[C@H](CC(=O)O)NC2=O (stereo partly drawn) [I-859, Ac-PL3-Asp-Npg-B5-Asp-Thr-Ala-Ala-Phe-Asn-PyrS2-3Thi-BztA-NH2] |  |  | 0.036 |  | > 20 | 2.711 | 0.036 |
| CC(=O)N1CCC[C@]12CC=CCCCC1(CCCC=CCCCOC(=O)N3CC[C@@](C(=O)N[C@@H](Cc4ccsc4)C(=O)N[C@@H](Cc4csc5ccccc45)C(=O)N[C@@H](CCC(N)=O)C(=O)NCCCCCCN)(C3)NC(=O)[C@H](CC(N)=O)NC(=O)[C@H](Cc3ccccc3)NC(=O)[C@H](C)NC(=O)[C@H](C)NC(=O)[C@H](CC(=O)O)NC(=O)[C@H](CC(=O)O)NC1=O)NC(=O)[C@H](CC(C)(C)C)NC(=O)[C@H](CC(=O)O)NC2=O (stereo partly drawn) [I-881, Ac-PL3-Asp-Npg-B5-Asp-Asp-Ala-Ala-Phe-Asn-PyrS2-3Thi-BztA-Gln-6AmHex] |  |  | 0.01 |  | 23.8 | −0.008 | 0.01 |
| CC(=O)N1CCC[C@]12CC=CCCCC1(CCCC=CCCCOC(=O)N3CC[C@@](C(=O)N[C@@H](Cc4ccsc4)C(=O)N[C@@H](Cc4csc5ccccc45)C(=O)N[C@@H](CCC(N)=O)C(=O)NCCCCCCN)(C3)NC(=O)[C@H](CC(N)=O)NC(=O)[C@H](Cc3ccccc3)NC(=O)[C@H](C)NC(=O)[C@H](C)NC(=O)[C@H](CC(=O)O)NC(=O)[C@H](CC(=O)O)NC1=O)NC(=O)[C@H](CC(C)(C)C)NC(=O)[C@H](CC(=O)O)NC2=O (stereo partly drawn) [I-882, Ac-PL3-Asp-Npg-B5-Asp-Asp-Ala-Ala-Phe-Asn-PyrS2-3Thi-BztA-Gln-6AmHex] |  |  | 0.022 | 22.5 | 41.4 | 2.028 | 0.022 |
| COCCOCCOCCOCCC(=O)NCCCC[C@@H]1NC(=O)[C@H](C)NC(=O)[C@H](CC(=O)O)NC(=O)[C@H](CC(=O)O)NC(=O)C2(CCCC=CCCCOC(=O)N3CC[C@@](C(=O)N[C@@H](Cc4ccsc4)C(=O)N[C@@H](Cc4csc5ccccc45)C(=O)N[C@@H](CCC(N)=O)C(N)=O)(C3)NC(=O)[C@H](CC(N)=O)NC(=O)[C@H](Cc3ccccc3)NC1=O)CCCC=CC[C@]1(CCCN1C(C)=O)C(=O)N[C@@H](CC(=O)O)C(=O)N[C@@H](CC(C)(C)C)C(=O)N2 (stereo partly drawn) [I-894, Ac-PL3-Asp-Npg-B5-Asp-Asp-Ala-[mPEG4]Lys-Phe-Asn-PyrS2-3Thi-BztA-Gln-NH2] | 1.45 |  | 0.015 |  | > 20 |  |  |
| COCCOCCC(=O)NCCCC[C@H](NC(=O)[C@H](CCC(N)=O)NC(=O)[C@H](Cc1csc2ccccc12)NC(=O)[C@H](Cc1ccsc1)NC(=O)[C@]12CCN(C1)C(=O)OCCCC=CCCCC1(CCCC=CC[C@]3(CCCN3C(C)=O)C(=O)N[C@@H](CC(=O)O)C(=O)N[C@@H](CC(C)(C)C)C(=O)N1)C(=O)N[C@@H](CC(=O)O)C(=O)N[C@@H](CC(=O)O)C(=O)N[C@@H](C)C(=O)N[C@@H](C)C(=O)N[C@@H](Cc1ccccc1)C(=O)N[C@@H](CC(N)=O)C(=O)N2)C(N)=O (stereo partly drawn) [I-911, Ac-PL3-Asp-Npg-B5-Asp-Asp-Ala-Ala-Phe-Asn-PyrS2-3Thi-BztA-Gln-[mPEG2]Lys-NH2] | 1.82 |  | 0.012 |  | 22.9 |  |  |
| CC(=O)N1CCC[C@]12CC=CCCCC1(CCCC=CCCCOC(=O)N3CC[C@@](C(=O)N[C@@H](Cc4ccccc4Cl)C(=O)N[C@@H](Cc4csc5ccccc45)C(=O)N[C@@H](CCC(N)=O)C(N)=O)(C3)NC(=O)[C@H](Cc3ccccc3)NC(=O)[C@H](Cc3ccccc3)NC(=O)[C@H](C)NC(=O)[C@H](C)NC(=O)[C@H](CN(CC(=O)O)CC(F)(F)F)NC(=O)[C@H](CC(=O)O)NC1=O)NC(=O)[C@H](CC(C)(C)C)NC(=O)[C@H](CC(=O)O)NC2=O (stereo partly drawn) [I-923, Ac-PL3-Asp-Npg-B5-Asp-TfeGA-Ala-Ala-Phe-Phe-PyrS2-2C1F-BztA-Gln-NH2] | 2.46 | 6 | 0.027 |  |  |  |  |
| CC(=O)N1CCC[C@]12CC=CCCCC1(CCCC=CCCCOC(=O)N3CC[C@@](C(=O)N[C@@H](Cc4cccc(Cl)c4)C(=O)N[C@@H](Cc4csc5ccccc45)C(=O)N[C@@H](CCC(N)=O)C(N)=O)(C3)NC(=O)[C@H](CC(N)=O)NC(=O)[C@H](Cc3ccccc3)NC(=O)[C@H](C)NC(=O)[C@H](C)NC(=O)[C@H](CN(CC(=O)O)CC(F)(F)F)NC(=O)[C@H](CC(=O)O)NC1=O)NC(=O)[C@H](CC(C)(C)C)NC(=O)[C@H](CC(=O)O)NC2=O (stereo partly drawn) [I-925, Ac-PL3-Asp-Npg-B5-Asp-TfeGA-Ala-Ala-Phe-Asn-PyrS2-3C1F-BztA-Gln-NH2] |  |  | 0.021 |  | 20 | 2.344 | 0.021 |
